The results in this text go back to patent US8084479B2, “Thiazole compounds and methods of use” (Amgen Inc., priority 2006, dated 2011).

The target of the assay is PKBα (Homo sapiens, UniProt P31749). In words: PKB kinase assay (P33-labeled ATP, peptide substrate, filter plate). Format: biochemical. Particulars: PKBα enzyme (full length or kinase domain with pleckstrin domain deleted). The source says:
The kinase assay for evaluating PKB activity comprises active PKB enzymes, a PKB specific substrate, and P^33-labeled ATP. […] The phosphorylated substrate was captured by a phosphocellulose membrane filter plate (MLLIPORE) and measured by a Wallac Microbeta liquid scintillation counter (Perkin Elmer).

pIC50: −log10 of the molar value. Where only a bound is given, the exact number is not on record here.

PKBα, sequence (P31749 118-480 limits assumed): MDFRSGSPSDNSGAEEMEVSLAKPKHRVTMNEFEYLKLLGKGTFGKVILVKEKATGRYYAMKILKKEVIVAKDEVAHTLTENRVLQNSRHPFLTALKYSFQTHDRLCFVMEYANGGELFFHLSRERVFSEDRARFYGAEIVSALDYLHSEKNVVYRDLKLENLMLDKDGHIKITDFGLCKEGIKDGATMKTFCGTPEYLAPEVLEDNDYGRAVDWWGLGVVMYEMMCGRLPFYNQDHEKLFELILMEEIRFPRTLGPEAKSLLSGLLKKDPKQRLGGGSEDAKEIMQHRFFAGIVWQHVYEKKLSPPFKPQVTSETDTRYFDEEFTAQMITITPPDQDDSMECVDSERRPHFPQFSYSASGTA

Turning to `N[C@H](CNc1ncc(-c2ccc3[nH]c(=O)oc3c2)s1)Cc1ccc(F)c(F)c1` [Example 127, 6-(2-((S)-2-Amino-3-(3,4-difluorophenyl)propylamino)thiazol-5-yl)benzo[d]oxazol-2(3H)-one], the pIC50 (usually the IC50 on a negative log10 scale, so that one unit is a factor of ten) is 6.00 to 7.30.

Regarding `CC(=O)N[C@H](CNc1ncc(-c2ccc3c(c2)CC(=O)N3)s1)Cc1ccc(C(F)(F)F)cc1` [Example 128, N—((S)-1-(5-(2-Oxoindolin-5-yl)thiazol-2-ylamino)-3-(4-(trifluoro-methyl)phenyl)propan-2-yl)acetamide], the pIC50 was 5.00 to 6.00.

With `COc1ccc(CC(N)CNc2ncc(-c3ccc4[nH]c(=O)oc4c3)s2)cc1F` (centres unmarked) [Example 129, 6-(2-(2-Amino-3-(3-fluoro-4-methoxyphenyl)propylamino)-thiazol-5-yl)benzo[d]oxazol-2(3H)-one], the pIC50 was 6.00 to 7.30.

`COc1ccc(CC(N)CNc2ncc(-c3ccc4c(c3)CC(=O)N4)s2)cc1F` (centres unmarked) [Example 130, 5-(2-(2-Amino-3-(3-fluoro-4-methoxyphenyl)propylamino)thiazol-5-yl)indolin-2-one] showed a pIC50 of 6.00 to 7.30.

In turn, `COc1ccc(CC(N)CNc2ncc(-c3ccc4cnccc4c3)s2)cc1F` (centres unmarked) [Example 131, N-(2-Amino-3-(3-fluoro-4-methoxyphenyl)propyl)-5-(isoquinolin-6-yl)thiazol-2-amine] gave a pIC50 of 6.00 to 7.30.

Regarding `N[C@H](CNc1ncc(-c2ccc3cnccc3c2)s1)Cc1ccc(Cl)c(Cl)c1` [Example 132, N—((S)-2-Amino-3-(3,4-dichlorophenyl)propyl)-5-(isoquinolin-6-yl)thiazol-2-amine], the pIC50 is over 7.30.

Compound `N[C@H](CNc1nc(C(F)(F)CO)c(-c2ccc3c(c2)CC(=O)N3)s1)Cc1ccc(C(F)(F)F)cc1` [Example 133, 5-(2-((S)-2-Amino-3-(4-(trifluoromethyl)phenyl)propylamino)-4-(1,1-difluoro-2-hydroxyethyl)thiazol-5-yl)indolin-2-one] gave a pIC50 of 5.00 to 6.00.

`N[C@H](CNc1nc(C(F)(F)CO)c(-c2ccc3cnccc3c2)s1)Cc1ccc(C(F)(F)F)cc1` [Example 134, 2-(2-((S)-2-Amino-3-(4-(trifluoromethyl)phenyl)-propylamino)-5-(isoquinolin-6-yl)thiazol-4-yl)-2,2-difluoroethanol] gave a pIC50 of 6.00 to 7.30.

`N[C@H](CNc1nc(C(F)(F)CO)c(-c2ccc3[nH]c(=O)oc3c2)s1)Cc1ccc(C(F)(F)F)cc1` [Example 135, 6-(2-((S)-2-Amino-3-(4-(trifluoromethyl)phenyl)-propylamino)-4-(1,1-difluoro-2-hydroxyethyl)thiazol-5-yl)benzo[d]oxazol-2(3H)-one] showed a pIC50 of 5.00 to 6.00.

`Cn1c(=O)[nH]c2ccc(-c3sc(NC[C@@H](N)Cc4ccc(C(F)(F)F)cc4)nc3C(F)(F)CO)cc21` [Example 136, 6-(2-((S)-2-Amino-3-(4-(trifluoromethyl)phenyl)propylamino)-4-(1,1-difluoro-2-hydroxyethyl)thiazol-5-yl)-1-methyl-1H-benzo[d]imidazol-2(3H)-one] had a pIC50 of 5.00 to 6.00.

Compound `N[C@@H](CNc1ncc(-c2ccc3c(c2)CC(=O)N3)s1)Cc1ccc(C(F)(F)F)cc1` [Example 137, 5-(2-((R)-2-Amino-3-(4-(trifluoromethyl)phenyl)propylamino)thiazol-5-1)indolin-2-one] had a pIC50 of 6.00 to 7.30.

The compound `CNc1cc2cc(-c3cnc(NC[C@@H](N)Cc4ccc(C(F)(F)F)cc4)s3)ccc2cn1` [Example 138, 6-(2-((S)-2-amino-3-(4-(trifluoromethyl)phenyl)propylamino)thiazol-5-yl)-N-methylisoquinolin-3-amine] showed a pIC50 of over 7.30.

On to `CNc1cc2cc(-c3cnc(NC[C@@H](N)Cc4ccc(Cl)cc4)s3)ccc2cn1` [Example 139, 6-(2-((S)-2-amino-3-(4-chlorophenyl)propylamino)thiazol-5-yl)-N-methylisoquinolin-3-amine], for which the pIC50 was over 7.30.

Compound `N[C@H](CNc1nc(C#CCO)c(-c2ccc3cnccc3c2)s1)Cc1ccc(C(F)(F)F)cc1` [Example 140, 3-(2-((S)-2-amino-3-(4-(trifluoromethyl)phenyl)propylamino)-5-(isoquinolin-6-yl)thiazol-4-yl)prop-2-yn-1-ol] had a pIC50 of over 7.30.

In turn, `CC(O)C#Cc1nc(NC[C@@H](N)Cc2ccc(C(F)(F)F)cc2)sc1-c1ccc2cnccc2c1` (stereo partly drawn) [Example 141, 4-(2-((S)-2-amino-3-(4-(trifluoromethyl)phenyl)propylamino)-5-(isoquinolin-6-yl)thiazol-4-yl)but-3-yn-2-ol] gave a pIC50 of over 7.30.

`N[C@H](CNc1nc(C#CC2(O)CCC2)c(-c2ccc3cnccc3c2)s1)Cc1ccc(C(F)(F)F)cc1` [Example 142, 1-(2-(2-((S)-2-amino-3-(4-(trifluoromethyl)phenyl)propylamino)-5-(isoquinolin-6-yl)thiazol-4-yl)ethynyl)cyclobutanol] had a negative logarithm of the IC50 (pIC50) of 6.00 to 7.30.

Take `CC#Cc1nc(NC[C@@H](N)Cc2ccc(C(F)(F)F)cc2)sc1-c1ccc2cnccc2c1` [Example 143, N—((S)-2-amino-3-(4-(trifluoromethyl)phenyl)propyl)-5-(isoquinolin-6-yl)-4-(prop-1-ynyl)thiazol-2-amine]: the pIC50 is over 7.30.

For `CC(O)C#Cc1nc(NC[C@@H](N)Cc2ccc(C(F)(F)F)cc2)sc1-c1ccc2c(c1)CC(=O)N2` (stereo partly drawn) [Example 144, 5-(2-((S)-2-amino-3-(4-(trifluoromethyl)phenyl)propylamino)-4-(3-hydroxybut-1-ynyl)thiazol-5-yl)indolin-2-one], the pIC50 is over 7.30.

In the case of `N[C@H](CNc1nc(C#CCO)c(-c2ccc3c(c2)CC(=O)N3)s1)Cc1ccc(C(F)(F)F)cc1` [Example 145, 5-(2-((S)-2-amino-3-(4-(trifluoromethyl)phenyl)propylamino)-4-(3-hydroxyprop-1-ynyl)thiazol-5-yl)indolin-2-one], the negative-log IC50 (pIC50) is over 7.30.

As to `COCC#Cc1nc(NC[C@@H](N)Cc2ccc(C(F)(F)F)cc2)sc1-c1ccc2cnccc2c1` [Example 146, N—((S)-2-amino-3-(4-(trifluoromethyl)phenyl)propyl)-5-(isoquinolin-6-yl)-4-(3-methoxyprop-1-ynyl)thiazol-2-amine], the pIC50 is 6.00 to 7.30.

For `N[C@H](CNc1nc(C#CC2=CCCC2)c(-c2ccc3cnccc3c2)s1)Cc1ccc(C(F)(F)F)cc1` [Example 147, N—((S)-2-amino-3-(4-(trifluoromethyl)phenyl)propyl)-4-(2-cyclopentenylethynyl)-5-(isoquinolin-6-yl)thiazol-2-amine], the pIC50 was 5.00 to 6.00.

`N[C@H](CNc1nc(C#CC2(O)CCCC2)c(-c2ccc3cnccc3c2)s1)Cc1ccc(C(F)(F)F)cc1` [Example 148, 1-(2-(2-((S)-2-amino-3-(4-(trifluoromethyl)phenyl)propylamino)-5-(isoquinolin-6-yl)thiazol-4-yl)ethynyl)cyclopentanol] had a pIC50 of 6.00 to 7.30.

`Cc1n[nH]c2ccc(-c3sc(NC[C@@H](N)Cc4ccc(C(F)(F)F)cc4)nc3C#CCO)cc12` [Example 149, 3-(2-((S)-2-amino-3-(4-(trifluoromethyl)phenyl)propylamino)-5-(3-methyl-1H-indazol-5-yl)thiazol-4-yl)prop-2-yn-1-ol] showed a pIC50 of over 7.30.

With `N[C@H](CNc1nc(C#CCO)c(-c2ccc3[nH]c(=O)oc3c2)s1)Cc1ccc(C(F)(F)F)cc1` [Example 150, 6-(2-((S)-2-amino-3-(4-(trifluoromethyl)phenyl)propylamino)-4-(3-hydroxyprop-1-ynyl)thiazol-5-yl)benzo[d]oxazol-2(3H)-one], the pIC50 was over 7.30.

Compound `CS(=O)(=O)NCC#Cc1nc(NC[C@@H](N)Cc2ccc(C(F)(F)F)cc2)sc1-c1ccc2cnccc2c1` [Example 151, N-(3-(2-((S)-2-amino-3-(4-(trifluoromethyl)phenyl)propylamino)-5-(isoquinolin-6-yl)thiazol-4-yl)prop-2-ynyl)methanesulfonamide] had a pIC50 of 5.00 to 6.00.

`CC#Cc1nc(NC[C@@H](N)Cc2ccc(C(F)(F)F)cc2)sc1-c1ccc2c(c1)CC(=O)N2` [Example 152, 5-(2-((S)-2-amino-3-(4-(trifluoromethyl)phenyl)propylamino)-4-(prop-1-ynyl)thiazol-5-yl)indolin-2-one]: the pIC50 is over 7.30.

The compound `CC#Cc1nc(NC[C@@H](N)Cc2ccc(C(F)(F)F)cc2)sc1-c1ccc2[nH]nc(C)c2c1` [Example 153, N—((S)-2-amino-3-(4-(trifluoromethyl)phenyl)propyl)-5-(3-methyl-1H-indazol-5-yl)-4-(prop-1-ynyl)thiazol-2-amine] had a pIC50 of over 7.30.

Regarding `C/C=C/[C@@H](c1ccc(C(F)(F)F)cc1)[C@H](N)CNc1ncc(-c2ccc3cnccc3c2)s1` [Example 154, N-((2S,3S,E)-2-amino-3-(4-(trifluoromethyl)phenyl)hex-4-enyl)-5-(isoquinolin-6-yl)thiazol-2-amine], the pIC50 is over 7.30.

`C/C=C/[C@@H](c1ccc(C(F)(F)F)cc1)[C@H](N)CNc1ncc(-c2ccc3c(c2)CC(=O)N3)s1` [Example 155, 5-(2-((2S,3S,E)-2-amino-3-(4-(trifluoromethyl)phenyl)hex-4-enylamino)thiazol-5-yl)indolin-2-one]: the pIC50 was over 7.30.

`CCC[C@@H](c1ccc(C(F)(F)F)cc1)[C@H](N)CNc1ncc(-c2ccc3c(c2)CC(=O)N3)s1` [Example 156, 5-(2-((2S,3S)-2-amino-3-(4-(trifluoromethyl)phenyl)hexylamino)thiazol-5-yl)indolin-2-one] had a pIC50 of 6.00 to 7.30.

In the case of `CCC[C@@H](c1ccc(C(F)(F)F)cc1)[C@H](N)CNc1ncc(-c2ccc3cnccc3c2)s1` [Example 157, N-((2S,3S)-2-amino-3-(4-(trifluoromethyl)phenyl)hexyl)-5-(isoquinolin-6-yl)thiazol-2-amine], the pIC50 is over 7.30.

Compound `N[C@H](CNc1ncc(-c2ccc3c(c2)CC(=O)N3)s1)[C@@H](CO)c1ccc(C(F)(F)F)cc1` [Example 158, 5-(2-((2S,3S)-2-amino-4-hydroxy-3-(4-(trifluoromethyl)phenyl)butylamino)thiazol-5-yl)indolin-2-one] gave a pIC50 of over 7.30.
